Active and inactive are the calls of the source.
How the values were obtained:
Assay type in all cases: functional
[1] = microbe, parasite or virus in culture; details: Mycobacterium tuberculosis
Bcl-2-related protein A1 = molecular target: T1, Bcl-2-related protein A1 (Mus musculus, UniProt Q07440);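 further: confirmatory dose–response counterscreen on Bfl-1, used to check hits from a UBC13 polyubiquitin inhibitor campaign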
T1 sequence (Q07440 whole entry): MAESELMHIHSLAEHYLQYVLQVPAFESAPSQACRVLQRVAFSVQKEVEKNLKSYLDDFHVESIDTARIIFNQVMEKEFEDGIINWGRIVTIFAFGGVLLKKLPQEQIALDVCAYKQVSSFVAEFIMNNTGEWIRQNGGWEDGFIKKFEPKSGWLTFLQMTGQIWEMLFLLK

[2] = molecular target: T2, Ubiquitin-conjugating enzyme E2 N (Homo sapiens, UniProt P61088)
T2 sequence (P61088 whole entry): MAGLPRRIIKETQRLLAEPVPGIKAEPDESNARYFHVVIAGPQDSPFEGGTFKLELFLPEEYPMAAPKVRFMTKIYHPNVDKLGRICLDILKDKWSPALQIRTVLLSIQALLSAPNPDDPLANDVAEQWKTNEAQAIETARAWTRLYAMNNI

[3] = molecular target: T2, Ubiquitin-conjugating enzyme E2 N; remark: listed apart in the source
[4] = molecular target: T3, Apoptotic protease-activating factor 1 (Homo sapiens, UniProt O14727)
T3 sequence (O14727 whole entry): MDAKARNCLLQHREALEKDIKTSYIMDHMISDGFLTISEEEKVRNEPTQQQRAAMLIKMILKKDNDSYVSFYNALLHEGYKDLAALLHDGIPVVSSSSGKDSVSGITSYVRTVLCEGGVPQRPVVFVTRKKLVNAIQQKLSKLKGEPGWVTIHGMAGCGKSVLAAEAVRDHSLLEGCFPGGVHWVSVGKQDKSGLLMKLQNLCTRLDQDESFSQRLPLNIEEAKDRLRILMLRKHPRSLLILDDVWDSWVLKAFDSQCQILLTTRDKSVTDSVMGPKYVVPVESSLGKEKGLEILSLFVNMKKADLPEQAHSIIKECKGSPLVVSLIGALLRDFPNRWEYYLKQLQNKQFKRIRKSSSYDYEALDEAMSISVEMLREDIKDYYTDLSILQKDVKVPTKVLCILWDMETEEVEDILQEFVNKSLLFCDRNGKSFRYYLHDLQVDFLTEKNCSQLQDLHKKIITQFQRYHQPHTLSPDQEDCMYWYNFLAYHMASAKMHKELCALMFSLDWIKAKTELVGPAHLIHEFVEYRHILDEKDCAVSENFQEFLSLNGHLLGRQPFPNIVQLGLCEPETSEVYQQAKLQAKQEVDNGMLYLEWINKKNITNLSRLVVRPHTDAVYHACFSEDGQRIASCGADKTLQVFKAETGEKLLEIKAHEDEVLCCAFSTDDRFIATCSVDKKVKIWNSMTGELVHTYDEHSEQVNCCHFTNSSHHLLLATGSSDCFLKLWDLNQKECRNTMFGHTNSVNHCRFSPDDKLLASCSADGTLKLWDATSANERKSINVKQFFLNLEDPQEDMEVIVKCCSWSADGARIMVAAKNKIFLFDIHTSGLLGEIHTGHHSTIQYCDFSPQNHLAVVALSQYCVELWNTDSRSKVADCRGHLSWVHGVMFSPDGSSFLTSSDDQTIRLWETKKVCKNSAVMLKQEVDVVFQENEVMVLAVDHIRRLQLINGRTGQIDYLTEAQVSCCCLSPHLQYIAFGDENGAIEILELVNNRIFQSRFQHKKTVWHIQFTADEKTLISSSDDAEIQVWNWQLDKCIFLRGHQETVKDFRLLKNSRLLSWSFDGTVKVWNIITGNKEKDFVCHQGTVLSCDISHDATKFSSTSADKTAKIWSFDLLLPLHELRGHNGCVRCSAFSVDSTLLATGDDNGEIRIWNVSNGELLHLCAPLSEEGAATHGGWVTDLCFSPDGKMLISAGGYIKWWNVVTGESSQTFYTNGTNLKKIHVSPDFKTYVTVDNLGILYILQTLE

INS1 = test: INS-1E survival protection against cytokine death – cell-based, luminescence, retest, dose response (AID 449756); details: Rattus norvegicus;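 further: cell death triggered by IL-1 beta plus TNF-alpha plus IFN-gamma mixture; protective hits raise ATP signal compared with cytokine alone wells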
[5] = molecular target: T3, Apoptotic protease-activating factor 1; test: SAR analysis of small molecule inhibitors of Apaf-1 in a Fluorescent assay.; details: read-out: IC50_Mean
[6] = molecular target: 26S proteasome non-ATPase regulatory subunit 14 (Homo sapiens, UniProt O00487); test: inhibition of proteasome subunit RPN11 – biochemical, fluorescence polarization, uHTS hits, confirmation (AID 602368)
[7] = molecular target: 72 kDa type IV collagenase (Homo sapiens, UniProt P08253); test: Dose Response validation of uHTS RPN11 inhibitor hits using a MMP-2 Fluorescence assay.
Prothrombin = Prothrombin (Bos taurus, UniProt P00735); test: thrombin protease inhibitors – biochemical, fluorescence polarization, uHTS hits, dose response (AID 602369)
[8] = molecular target: T4, Small ubiquitin-related modifier 1 (Homo sapiens, UniProt P63165); test: SUMO1 protein interaction blockers, potency – biochemical, fluorescence polarization, uHTS hits, dose response (AID 624382); details: read-out: IC50_Mean
[9] = molecular target: T4, Small ubiquitin-related modifier 1; test: SUMO1 protein-protein binding blockers, potency – biochemical, FRET, dose response (AID 624383); details: read-out: IC50_Mean
[10] = molecular target: T5, Rac GTPase-activating protein 1 (Homo sapiens, UniProt Q9H0H5); test: blockers of MgcRacGAP-driven Rac1 GTP hydrolysis – biochemical, ADP Hunter fluorescence, primary and confirmatory, confirmation (AID 624330)
T5 sequence (Q9H0H5 whole entry): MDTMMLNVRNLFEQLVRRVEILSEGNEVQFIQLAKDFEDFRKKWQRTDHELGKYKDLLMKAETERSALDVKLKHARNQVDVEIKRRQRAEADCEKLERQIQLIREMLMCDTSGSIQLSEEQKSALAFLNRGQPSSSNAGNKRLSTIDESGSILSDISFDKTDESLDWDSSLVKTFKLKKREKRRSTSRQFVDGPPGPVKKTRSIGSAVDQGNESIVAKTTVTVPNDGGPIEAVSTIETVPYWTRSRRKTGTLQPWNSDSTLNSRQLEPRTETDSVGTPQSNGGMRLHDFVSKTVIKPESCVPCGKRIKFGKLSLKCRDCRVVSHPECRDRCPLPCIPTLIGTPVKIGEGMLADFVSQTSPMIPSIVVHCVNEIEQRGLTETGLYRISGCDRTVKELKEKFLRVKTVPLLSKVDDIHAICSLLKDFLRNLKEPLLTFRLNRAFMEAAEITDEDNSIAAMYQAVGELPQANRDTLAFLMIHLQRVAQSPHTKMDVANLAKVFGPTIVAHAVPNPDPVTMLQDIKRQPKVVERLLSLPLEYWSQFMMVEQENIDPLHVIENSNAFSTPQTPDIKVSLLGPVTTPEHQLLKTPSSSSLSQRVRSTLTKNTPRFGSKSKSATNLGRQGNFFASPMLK

[11] = molecular target: T6, Botulinum neurotoxin type A (Clostridium botulinum (strain Hall / ATCC 3502 / NCTC 13319 / Type A), UniProt P0DPI1); test: High-throughput multiplex microsphere dose response for inhibitors of toxin protease, specifically Botulinum neurotoxin light chain A protease, compounds from Cherry Pick 02.; details: read-out: EC50_MICROM
Lethal factor = Lethal factor (Bacillus anthracis, UniProt P15917); test: High-throughput multiplex microsphere dose response for inhibitors of toxin protease, specifically Lethal Factor protease, compounds from Cherry Pick 02.; details: read-out: EC50_MICROM
[12] = molecular target: Botulinum neurotoxin type F (Clostridium botulinum, UniProt P30996); test: High-throughput multiplex microsphere dose response for inhibitors of toxin protease, specifically Botulinum neurotoxin light chain F protease, compounds from Cherry Pick 02.; details: read-out: EC50_MICROM
[13] = molecular target: T6, Botulinum neurotoxin type A; test: High-throughput multiplex microsphere dose response for inhibitors of toxin protease, specifically Botulinum neurotoxin light chain A protease, compounds from Cherry Pick 01.; details: read-out: EC50_MICROM
[14] = molecular target: Protein kinase C theta type (Homo sapiens, UniProt Q04759); test: Navigating the Kinome. Panel member name: PRKCQ
[15] = molecular target: Proto-oncogene tyrosine-protein kinase receptor Ret (Homo sapiens, UniProt P07949);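 further: measured within a kinome-wide profiling panel, RET as the panel member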
[16] = molecular target: Tyrosine-protein kinase receptor TYRO3 (Homo sapiens, UniProt Q06418);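 further: TYRO3 value obtained as one member of a kinome-wide profiling panel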
[17] = molecular target: Serine/threonine-protein kinase D3 (Homo sapiens, UniProt O94806);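 further: determined within a kinase panel screen, with PRKCN as the panel member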
[18] = molecular target: Death-associated protein kinase 3 (Homo sapiens, UniProt O43293);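 further: measured as one member of a kinome-wide profiling panel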
Aurora kinase A = Aurora kinase A (Homo sapiens, UniProt O14965);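 further: value from the Navigating the Kinome kinase panel profiling, panel entry STK6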
[19] = molecular target: Casein kinase I isoform alpha (Homo sapiens, UniProt P48729)
LIM domain kinase 1 = LIM domain kinase 1 (Homo sapiens, UniProt P53667); test: Navigating the Kinome. Panel member name: LIMK1
[20] = molecular target: Mitogen-activated protein kinase kinase kinase kinase 2 (Homo sapiens, UniProt Q12851);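 further: measured as one member of a kinome-wide kinase panel, with MAP4K2 as the panel entry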
[21] = molecular target: Hepatocyte growth factor receptor (Homo sapiens, UniProt P08581);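 further: kinase panel profiling across the kinome, with MET as the panel member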
[22] = molecular target: Platelet-derived growth factor receptor beta (Homo sapiens, UniProt P09619);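 further: value comes from a kinome panel, with PDGFRB tested as one panel member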
[23] = molecular target: Serine/threonine-protein kinase Chk1 (Homo sapiens, UniProt O14757);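 further: measured as one member of a kinome-wide kinase profiling panel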
[24] = molecular target: Tyrosine-protein kinase ABL1 (Homo sapiens, UniProt P00519)
[25] = molecular target: Vascular endothelial growth factor receptor 2 (Homo sapiens, UniProt P35968)
[26] = molecular target: G protein-coupled receptor kinase 5 (Homo sapiens, UniProt P34947); test: Navigating the Kinome. Panel member name: GPRK5
[27] = molecular target: Cyclin-dependent kinase 5 (Homo sapiens, UniProt Q00535);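 further: CDK5 measured as one member of a kinase profiling panel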
[28] = molecular target: Dual specificity tyrosine-phosphorylation-regulated kinase 1B (Homo sapiens, UniProt Q9Y463); test: Navigating the Kinome. Panel member name: DYRK1B
[29] = molecular target: cAMP-dependent protein kinase catalytic subunit PRKX (Homo sapiens, UniProt P51817)
Focal adhesion kinase 1 = Focal adhesion kinase 1 (Homo sapiens, UniProt Q05397);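 further: measured as one member of a kinome panel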
[30] = molecular target: Leucine-rich repeat serine/threonine-protein kinase 2 (Homo sapiens, UniProt Q5S007);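 further: value from a broad kinome-wide panel profiling study in which LRRK2 was one of the kinases tested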
Aurora kinase B = Aurora kinase B (Homo sapiens, UniProt Q96GD4)
[31] = molecular target: Serine/threonine-protein kinase Nek2 (Homo sapiens, UniProt P51955)
[32] = molecular target: Cyclin-dependent kinase 8 (Homo sapiens, UniProt P49336); test: Navigating the Kinome. Panel member name: CDK8
[33] = molecular target: Cyclin-dependent kinase 7 (Homo sapiens, UniProt P50613);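 further: value comes from a kinome-wide kinase profiling panel in which CDK7 is one member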
[34] = molecular target: cAMP-dependent protein kinase catalytic subunit alpha (Homo sapiens, UniProt P17612)
[35] = molecular target: Dual specificity protein kinase CLK4 (Homo sapiens, UniProt Q9HAZ1)
[36] = molecular target: Macrophage colony-stimulating factor 1 receptor (Homo sapiens, UniProt P07333);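 further: value comes from the Navigating the Kinome screening panel, CSF1R member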
[37] = molecular target: Dual specificity tyrosine-phosphorylation-regulated kinase 1A (Homo sapiens, UniProt Q13627);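 further: measured against DYRK1A as one member of a broad kinome profiling panel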
[38] = molecular target: Inhibitor of nuclear factor kappa-B kinase subunit epsilon (Homo sapiens, UniProt Q14164); test: Navigating the Kinome. Panel member name: IKBKE
[39] = molecular target: Calcium/calmodulin-dependent protein kinase type II subunit alpha (Homo sapiens, UniProt Q9UQM7); test: Navigating the Kinome. Panel member name: CAMK2A
[40] = molecular target: Leukocyte tyrosine kinase receptor (Homo sapiens, UniProt P29376); test: Navigating the Kinome. Panel member name: LTK
Sequence of Leukocyte tyrosine kinase receptor (P29376 whole entry): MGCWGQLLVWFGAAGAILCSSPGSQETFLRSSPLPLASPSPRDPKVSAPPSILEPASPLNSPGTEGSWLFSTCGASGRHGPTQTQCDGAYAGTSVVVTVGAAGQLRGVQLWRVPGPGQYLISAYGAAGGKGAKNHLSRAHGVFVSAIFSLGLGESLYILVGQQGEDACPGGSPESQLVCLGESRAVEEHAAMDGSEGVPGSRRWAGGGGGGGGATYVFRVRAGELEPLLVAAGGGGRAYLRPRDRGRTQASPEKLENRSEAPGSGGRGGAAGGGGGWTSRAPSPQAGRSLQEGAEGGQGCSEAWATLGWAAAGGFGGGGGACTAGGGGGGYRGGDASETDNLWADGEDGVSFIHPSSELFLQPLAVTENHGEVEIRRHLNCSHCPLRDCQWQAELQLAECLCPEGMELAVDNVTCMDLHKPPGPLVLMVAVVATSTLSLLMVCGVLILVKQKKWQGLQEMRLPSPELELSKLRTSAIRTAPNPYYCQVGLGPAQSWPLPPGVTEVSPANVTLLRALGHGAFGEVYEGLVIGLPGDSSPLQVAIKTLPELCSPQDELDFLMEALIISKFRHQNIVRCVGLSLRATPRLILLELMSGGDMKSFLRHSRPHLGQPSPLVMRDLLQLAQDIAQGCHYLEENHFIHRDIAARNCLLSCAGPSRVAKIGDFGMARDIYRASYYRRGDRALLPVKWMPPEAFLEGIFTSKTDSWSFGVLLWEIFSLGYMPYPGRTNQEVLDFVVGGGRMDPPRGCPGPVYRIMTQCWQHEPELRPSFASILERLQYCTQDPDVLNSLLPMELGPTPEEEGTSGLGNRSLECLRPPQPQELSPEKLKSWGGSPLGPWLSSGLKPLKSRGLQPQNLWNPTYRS

T6 sequence (P0DPI1 2-448 limits assumed): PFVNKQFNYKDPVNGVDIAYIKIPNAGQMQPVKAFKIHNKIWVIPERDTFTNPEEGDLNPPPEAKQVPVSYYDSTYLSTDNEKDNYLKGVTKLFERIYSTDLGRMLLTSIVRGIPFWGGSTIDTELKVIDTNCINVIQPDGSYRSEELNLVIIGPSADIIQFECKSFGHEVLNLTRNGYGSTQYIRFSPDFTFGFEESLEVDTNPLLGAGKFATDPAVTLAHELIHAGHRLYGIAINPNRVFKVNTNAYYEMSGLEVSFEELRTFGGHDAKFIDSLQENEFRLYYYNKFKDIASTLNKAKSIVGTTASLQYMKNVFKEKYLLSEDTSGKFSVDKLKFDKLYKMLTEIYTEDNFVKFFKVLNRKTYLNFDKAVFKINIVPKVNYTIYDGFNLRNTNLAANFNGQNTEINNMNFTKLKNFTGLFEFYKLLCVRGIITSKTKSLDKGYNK
T4 sequence (P63165 whole entry): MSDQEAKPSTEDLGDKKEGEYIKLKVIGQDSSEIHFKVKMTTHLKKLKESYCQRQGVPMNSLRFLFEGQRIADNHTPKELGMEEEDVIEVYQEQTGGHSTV
Sequence of Mitogen-activated protein kinase kinase kinase kinase 2 (Q12851 whole entry): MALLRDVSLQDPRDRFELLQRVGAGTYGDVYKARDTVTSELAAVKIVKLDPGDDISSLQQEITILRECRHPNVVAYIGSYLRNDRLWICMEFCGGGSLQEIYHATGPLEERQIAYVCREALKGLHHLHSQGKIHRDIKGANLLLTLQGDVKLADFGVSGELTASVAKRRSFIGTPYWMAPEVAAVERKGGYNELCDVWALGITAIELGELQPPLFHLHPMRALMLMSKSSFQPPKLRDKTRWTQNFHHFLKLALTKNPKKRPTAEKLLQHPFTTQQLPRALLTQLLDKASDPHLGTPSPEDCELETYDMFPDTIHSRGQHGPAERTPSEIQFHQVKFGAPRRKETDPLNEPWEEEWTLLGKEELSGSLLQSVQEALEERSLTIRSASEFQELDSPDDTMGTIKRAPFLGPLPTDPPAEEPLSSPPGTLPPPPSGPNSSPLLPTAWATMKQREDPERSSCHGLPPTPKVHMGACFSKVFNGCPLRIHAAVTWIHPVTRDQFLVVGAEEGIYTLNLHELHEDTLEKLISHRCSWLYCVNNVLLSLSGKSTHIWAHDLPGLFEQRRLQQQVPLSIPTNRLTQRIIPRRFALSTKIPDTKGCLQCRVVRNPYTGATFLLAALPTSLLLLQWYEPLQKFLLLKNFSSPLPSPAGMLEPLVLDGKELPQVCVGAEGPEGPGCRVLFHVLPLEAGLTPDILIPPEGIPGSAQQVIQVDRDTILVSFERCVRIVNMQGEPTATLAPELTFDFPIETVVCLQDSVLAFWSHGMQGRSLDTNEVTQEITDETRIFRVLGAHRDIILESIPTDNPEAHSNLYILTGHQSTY
Sequence of 26S proteasome non-ATPase regulatory subunit 14 (O00487 whole entry): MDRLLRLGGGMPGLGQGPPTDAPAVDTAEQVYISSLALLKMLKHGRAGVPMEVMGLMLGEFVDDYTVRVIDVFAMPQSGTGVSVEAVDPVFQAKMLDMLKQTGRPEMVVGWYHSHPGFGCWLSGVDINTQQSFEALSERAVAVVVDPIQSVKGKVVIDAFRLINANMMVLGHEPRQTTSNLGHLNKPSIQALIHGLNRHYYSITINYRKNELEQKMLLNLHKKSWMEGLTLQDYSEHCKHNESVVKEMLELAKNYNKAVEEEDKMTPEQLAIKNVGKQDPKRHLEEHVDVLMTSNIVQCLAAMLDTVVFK
Sequence of Aurora kinase A (O14965 whole entry, canonical isoform): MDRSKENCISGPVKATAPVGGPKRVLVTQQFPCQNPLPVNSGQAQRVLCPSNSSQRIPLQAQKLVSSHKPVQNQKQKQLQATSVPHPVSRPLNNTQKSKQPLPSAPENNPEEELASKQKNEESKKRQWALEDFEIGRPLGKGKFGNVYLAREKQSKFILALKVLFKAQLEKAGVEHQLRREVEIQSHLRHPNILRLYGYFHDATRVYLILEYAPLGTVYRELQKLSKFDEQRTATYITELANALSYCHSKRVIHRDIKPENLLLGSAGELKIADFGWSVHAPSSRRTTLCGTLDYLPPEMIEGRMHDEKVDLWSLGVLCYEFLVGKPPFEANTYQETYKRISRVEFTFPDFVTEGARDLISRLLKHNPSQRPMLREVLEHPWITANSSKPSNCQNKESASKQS
Sequence of Proto-oncogene tyrosine-protein kinase receptor Ret (P07949 whole entry): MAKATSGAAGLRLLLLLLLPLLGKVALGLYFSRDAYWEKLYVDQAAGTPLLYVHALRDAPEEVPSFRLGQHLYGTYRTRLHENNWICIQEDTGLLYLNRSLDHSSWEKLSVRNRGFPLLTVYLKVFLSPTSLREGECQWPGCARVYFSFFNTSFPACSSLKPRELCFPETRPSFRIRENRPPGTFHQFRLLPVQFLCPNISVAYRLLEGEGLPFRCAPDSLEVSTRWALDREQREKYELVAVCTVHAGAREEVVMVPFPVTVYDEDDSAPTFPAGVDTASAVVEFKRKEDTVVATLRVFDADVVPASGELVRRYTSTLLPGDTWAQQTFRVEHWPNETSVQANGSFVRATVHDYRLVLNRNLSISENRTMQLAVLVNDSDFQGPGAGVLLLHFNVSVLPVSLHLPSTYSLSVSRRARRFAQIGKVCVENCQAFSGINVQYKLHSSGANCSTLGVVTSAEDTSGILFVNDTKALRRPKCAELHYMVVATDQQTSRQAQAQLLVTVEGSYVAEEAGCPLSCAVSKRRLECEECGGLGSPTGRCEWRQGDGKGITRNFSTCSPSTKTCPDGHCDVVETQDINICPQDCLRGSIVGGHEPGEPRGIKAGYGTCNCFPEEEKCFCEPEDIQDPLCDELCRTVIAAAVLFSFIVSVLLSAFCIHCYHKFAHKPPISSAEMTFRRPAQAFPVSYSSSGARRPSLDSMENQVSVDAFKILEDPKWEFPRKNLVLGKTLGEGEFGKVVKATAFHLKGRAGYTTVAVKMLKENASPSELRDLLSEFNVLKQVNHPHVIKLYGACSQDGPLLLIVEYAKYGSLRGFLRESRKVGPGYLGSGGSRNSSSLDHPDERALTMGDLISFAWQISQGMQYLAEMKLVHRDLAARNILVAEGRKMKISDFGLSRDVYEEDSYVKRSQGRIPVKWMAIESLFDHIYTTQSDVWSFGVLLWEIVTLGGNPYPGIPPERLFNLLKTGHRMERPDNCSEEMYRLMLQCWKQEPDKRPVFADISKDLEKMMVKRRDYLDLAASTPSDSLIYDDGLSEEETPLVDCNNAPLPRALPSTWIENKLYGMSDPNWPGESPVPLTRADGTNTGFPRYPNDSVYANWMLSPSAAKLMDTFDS
Sequence of Macrophage colony-stimulating factor 1 receptor (P07333 whole entry): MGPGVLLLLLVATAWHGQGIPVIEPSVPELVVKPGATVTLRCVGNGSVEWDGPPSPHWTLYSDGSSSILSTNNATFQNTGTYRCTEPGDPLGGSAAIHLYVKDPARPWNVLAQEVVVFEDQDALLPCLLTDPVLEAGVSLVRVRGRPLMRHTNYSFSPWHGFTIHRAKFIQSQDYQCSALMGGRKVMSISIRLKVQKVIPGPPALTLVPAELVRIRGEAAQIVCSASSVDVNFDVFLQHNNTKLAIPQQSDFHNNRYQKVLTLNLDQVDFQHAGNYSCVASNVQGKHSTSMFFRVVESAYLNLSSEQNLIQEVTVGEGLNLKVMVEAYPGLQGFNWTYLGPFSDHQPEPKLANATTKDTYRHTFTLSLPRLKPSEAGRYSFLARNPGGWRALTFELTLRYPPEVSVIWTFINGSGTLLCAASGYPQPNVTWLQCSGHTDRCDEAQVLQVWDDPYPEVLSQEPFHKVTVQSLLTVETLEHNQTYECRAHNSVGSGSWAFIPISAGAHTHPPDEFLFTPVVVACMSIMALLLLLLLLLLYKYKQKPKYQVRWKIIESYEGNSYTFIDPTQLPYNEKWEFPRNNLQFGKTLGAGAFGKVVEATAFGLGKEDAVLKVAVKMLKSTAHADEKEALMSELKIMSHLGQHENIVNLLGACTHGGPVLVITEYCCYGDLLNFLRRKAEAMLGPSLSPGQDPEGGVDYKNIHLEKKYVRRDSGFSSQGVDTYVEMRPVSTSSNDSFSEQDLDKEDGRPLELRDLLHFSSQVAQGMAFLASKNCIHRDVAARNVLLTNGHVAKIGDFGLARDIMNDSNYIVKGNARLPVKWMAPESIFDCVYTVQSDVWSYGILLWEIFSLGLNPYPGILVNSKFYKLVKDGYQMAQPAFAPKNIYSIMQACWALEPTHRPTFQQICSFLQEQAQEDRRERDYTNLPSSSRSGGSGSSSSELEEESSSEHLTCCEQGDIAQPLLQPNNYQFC

SMILES: CCN(CC)CCOC(=O)c1ccc(N/C=C(/C#N)c2nc(-c3ccc4c(c3)OCO4)cs2)cc1
- CC50 [1]: > 40 µM (active)
- IC50 (Bcl-2-related protein A1): 1.72 µM (active)
- IC50 [2]: 6.35 µM (active)
- IC50 [3]: 5.07 µM (active)
- IC50 [4]: 20.7 µM (active)
- AC50 (INS1): 11 µM (active)
- IC50 [5]: 6.43 µM (active)
- IC50 [6]: 31.4 µM (active)
- IC50 [7]: > 100 µM (inactive)
- IC50 (Prothrombin): 56.1 µM (active)
- IC50 [8]: > 66.6 µM (inactive)
- IC50 [9]: 2.13 µM (active)
- IC50 [10]: 120 µM (active)

SMILES: CCOCCSc1nc2c(c(-c3cccs3)c1C#N)CC/C2=C/c1cccs1
- EC50 [11]: 17.8 µM (active)
- EC50 (Lethal factor): 16.7 µM (active)
- EC50 [12]: 8 µM (active)
- EC50 [13]: 6.4 µM (active)

SMILES: CC1=CN2CC(=O)NN=C2C=C1
- Ki [14]: > 100 µM (inactive)
- Ki [15]: 50.1 µM (active)
- Ki [16]: 50.1 µM (active)
- Ki [17]: 100 µM (active)
- Ki [18]: 63.1 µM (active)
- Ki (Aurora kinase A): 31.6 µM (active)
- Ki [19]: 79.4 µM (active)
- Ki (LIM domain kinase 1): 12.6 µM (active)
- Ki [20]: 79.4 µM (active)
- Ki [21]: 50.1 µM (active)
- Ki [22]: > 79.4 µM (inactive)
- Ki [23]: 12.6 µM (active)
- Ki [24]: 100 µM (active)
- Ki [25]: > 100 µM (inactive)
- Ki [26]: 50.1 µM (active)
- Ki [27]: 50.1 µM (active)
- Ki [28]: 25.1 µM (active)
- Ki [29]: 79.4 µM (active)
- Ki (Focal adhesion kinase 1): 79.4 µM (active)
- Ki [30]: 31.6 µM (active)
- Ki (Aurora kinase B): 79.4 µM (active)
- Ki [31]: 20 µM (active)
- Ki [32]: 20 µM (active)
- Ki [33]: 79.4 µM (active)
- Ki [34]: > 50.1 µM (inactive)
- Ki [35]: 3.16 µM (active)
- Ki [36]: > 100 µM (inactive)
- Ki [37]: 12.6 µM (active)
- Ki [38]: 100 µM (active)
- Ki [39]: 63.1 µM (active)
- Ki [40]: 31.6 µM (active)

— ChEMBL document CHEMBL1201862, “PubChem BioAssay data set” (2004)
